The values below come from PubChem BioAssay AID720587 (Broad Institute, 2013).

Values joined by “and” are separate entries in the source; they are usually repeats but may differ in a detail not shown here. Equal entries are not always repeated.

The experiment concerns A673 Ewing sarcoma viability, CellTiter-Glo ATP luminescence, 72 h. The experiment is described as follows: A673 Ewing sarcoma viability loss – cell-based, CellTiter-Glo luminescence, cherry-pick retest, confirmation (AID 720587).

With `O=C(Nc1ccc2c(c1)OCO2)N1C[C@@H]2N[C@H](C1)C2c1ccc(C=Cc2ccccc2)cc1` (some centres undefined), the AC35 is 4.6 µM.
Next, `CCN1C/C(=C/c2ccc(N3CCOCC3)cc2)C(=O)/C(=C/c2ccc(N3CCOCC3)cc2)C1`: 3.68 µM; `O=C(CCCN1C(=O)S/C(=C\c2ccccc2)C1=O)NNC(=O)c1ccccc1O`: 18.7 µM.
In the case of `O=C(CCc1ccccc1)NC(c1cccs1)c1cc(Cl)c2cccnc2c1O` (centres undefined) it was 0.694 µM; in that of `COc1cc(-c2cnc3c(NC=O)cc(-c4cccc(NC(C)=O)c4)cn23)cc(OC)c1OC`, 0.371 µM.
Consider `Cc1ccc(S(=O)(=O)N(C)C[C@@H]2Oc3ccc(NC(=O)CCCCCC(=O)Nc4ccccc4N)cc3CC(=O)N([C@@H](C)CO)C[C@@H]2C)cc1`, for which the AC35 was 15.3 µM.
As to `BrC(=C\c1ccccc1)/C=N/n1cnnc1`, the AC35 is 2.23 µM.
`CN=c1scc(-c2ccccc2F)n1/N=C/c1ccc(O)c(O)c1O`: the AC35 was 11.6 µM.
For `C=C1C(=O)[C@@]23[C@H](O)C[C@@H]4C(C)(C)CC[C@H](O)[C@@]4(C)[C@@H]2CC[C@@H]1[C@H]3O`, the AC35 is 3.15 µM.
In the case of `O=C(NC1CCCC1)N1CCCCN2[C@@H](CO)[C@@H](c3ccc(/C=C/c4ccccc4)cc3)[C@@H]2C1` it was 7.8 µM; in that of `C[C@@H]1CN([C@H](C)CO)C(=O)Cc2cc(N(C)C)ccc2O[C@H]1CN(C)Cc1ccc(C(=O)Nc2ccccc2N)cc1`, 12.7 µM; in that of `COc1cc2c(cc1OC)C(C)N(C(=O)c1cc(Cl)nc(Cl)c1)CC2` (centres undefined), 12.1 µM.
For the compound `CCc1ccc(N2C=C(C(=O)OC)C(c3ccc(OC)cc3)C(C#N)=C2N)cc1` (centres undefined), the AC35 is 12.5 µM.
Next, `CC(=O)OC1CC(OC2C(O)CC(OC3C(O)CC(OC4CCC5(C)C(CCC6C5CCC5(C)C(C7=CC(=O)OC7)C(O)CC65O)C4)OC3C)OC2C)OC(C)C1OC1OC(CO)C(O)C(O)C1O` (centres undefined): 1.26 µM.
Take `O=C(Sc1cccc2cccnc12)c1ccccc1Br`: the AC35 is 1.17 µM.
Regarding `C[C@@H]1CN([C@H](C)CO)C(=O)c2cccc(N(C)C)c2O[C@@H]1CN(C)Cc1ccc(C(=O)Nc2ccccc2N)cc1`, the AC35 was 19.6 µM.
With `C(=N\Nc1nc2ccccc2[nH]1)/c1ccccn1`, the AC35 was 1.74 µM.
Turning to `COc1ccc(OC)c(/C=C/c2ccnc3ccccc23)c1`, the AC35 was 1.7 µM.
Next, `Brc1ccc(CSc2nnc(-c3ccco3)o2)cc1`: 6.49 µM; `CCOC(=O)[C@]12Cc3ccc(C)cc3[C@H]1N(C1CCCCC1)C(=O)c1ccccc12`: 5.01 µM.
As for `COC(=O)C[C@H]1CC[C@@H](NC(=O)Nc2ccc(C(F)(F)F)cc2)[C@H](CO)O1`, the AC35 is 18.9 µM.
Regarding `C[C@]12CCC3C(CCC4=CC(O)CC[C@@]43/C=N/O)C1(O)CCC2C1=CC(=O)OC1` (some centres undefined), the AC35 was 0.569 µM.
In the case of `COc1ccc(-c2cnc3c(NC=O)cc(-c4ccccc4OC)cn23)cc1OC` it was 0.101 µM; in that of `Nc1nc(=S)c2ncn([C@@H]3O[C@H](CO)[C@@H](O)[C@H]3O)c2[nH]1`, 1.53 µM; in that of `Cc1c(N=Cc2cc(Br)cc(Br)c2O)cccc1C(=O)O`, 20 µM.
`COc1ccc(C2=Nn3c(nnc3-c3ccccc3OC)SC2)cc1OCC1CC1`: the AC35 is 4.88 µM.
Take `O=C1c2ccccc2C(=O)c2cc(N3CCCCC3)ccc21`: the AC35 is 16.8 µM.
In the case of `C[C@@H]1O[C@@H](O[C@H]2C[C@@H](O)[C@]3(CO)[C@H]4[C@H](O)C[C@]5(C)[C@@H](C6COC(=O)C6)CC[C@]5(O)[C@@H]4CC[C@]3(O)C2)[C@H](O)[C@H](O)[C@H]1O` (some centres undefined) it was 2.06 µM; in that of `COc1ccc(S(=O)(=O)N2CC[C@@H]3[C@@H](CO)Nc4ccc(-c5ccc(C#N)cc5)cc4[C@@H]32)cc1`, 8.87 µM; in that of `CC(C)c1oc(=O)cc2c1[C@@H](O)[C@H]1OC(=O)[C@@]3(C)CC[C@@H](O)[C@@]2(C)C13` (some centres undefined), 19.3 µM.
Regarding `CC1(C(=O)NCc2ccco2)Cc2c(-c3cccc(C(N)=O)c3)ccnc2O1` (centres undefined), the AC35 was 5.1 µM.
For the compound `C[C@H](CO)N1C[C@H](C)[C@@H](CN(C)Cc2ccc(C(F)(F)F)cc2)OCCCC[C@H](C)Oc2ccc(NS(=O)(=O)c3ccc(F)cc3)cc2C1=O`, the AC35 is 13.4 µM.
Turning to `CC(C)N1C/C(=C/c2ccsc2)C(=O)/C(=C/c2ccsc2)C1`, the AC35 is 5.27 µM.
In the case of `CCCCCCCCNC(C)C(O)c1ccc(SC(C)C)cc1` (centres undefined), the AC35 is 5.92 µM.
Regarding `Cc1ccc(S(=O)(=O)Nc2ccc3c(c2)C(=O)N([C@H](C)CO)C[C@H](C)[C@@H](CN(C)Cc2ccc(C(F)(F)F)cc2)OCCCC[C@H](C)O3)cc1`, the AC35 was 12.8 µM.
Consider `Cn1ccc2cc(-c3ccc4ncnc(NCc5cccs5)c4c3)ccc21`, for which the AC35 was 4.58 µM.
Take `COc1ccc(CCCNC(=O)C2Cc3c(-c4ccc5c(c4)OCO5)ccnc3O2)cc1` (centres undefined): the AC35 was 15.8 µM.
With `O=C1c2ccccc2C(=O)N1CCCCNc1ccccc1`, the AC35 is 10.8 µM.
As to `N#CC1=C(N)Oc2cc(N)ccc2C1c1cccc(F)c1` (centres undefined), the AC35 is 3.12 µM.
Take `O=c1cc(CN2CCN(Cc3ccccc3)CC2)c2ccc(O)c(O)c2o1`: the AC35 is 8.02 µM.
Consider `CC(=O)Oc1ccc(-c2ccc(C(=O)Nc3cccc(S(=O)(=O)N4CCOCC4)c3)cc2)cc1`, for which the AC35 is 15.3 µM.
For the compound `C[C@@H]1CN([C@@H](C)CO)C(=O)Cc2cc(NS(=O)(=O)c3cccs3)ccc2O[C@H]1CN(C)Cc1ccc(Cl)c(Cl)c1`, the AC35 was 12.5 µM.
Next, `CCc1ccc(S(=O)(=O)c2ccc(-n3nc(C)cc3N)cc2)cc1`: 17.8 µM; `Cc1cc(C)c2sc(NNC(=O)c3ccc(S(=O)(=O)N4CCc5ccccc5C4)cc3)nc2c1`: 1.19 µM; `Cc1cc2c(C(C)C)c(O)c(O)c(C=O)c2c(O)c1-c1c(C)cc2c(C(C)C)c(O)c(O)c(C=O)c2c1O`: 6.09 µM.
Consider `C[C@H](CO)N1C[C@H](C)[C@H](CN(C)Cc2ccc(C(=O)Nc3ccccc3N)cc2)Oc2ccc(N(C)C)cc2CC1=O`, for which the AC35 was 3.83 µM.
Next, `O=C(O)c1ccc(N/N=C/c2ccc3nccnc3c2)cc1`: 15 µM.
In the case of `COc1ccc(C2c3cc4c(cc3OC(NNC(N)=O)C2C)OCO4)cc1` (centres undefined) it was 12.4 µM; in that of `CC(C)(C)c1ccc(Oc2ccc(N)cn2)cc1`, 5.13 µM; in that of `C[C@@H]1CN([C@@H](C)CO)C(=O)Cc2cc(N(C)C)ccc2O[C@@H]1CN(C)Cc1ccccc1`, 14.4 µM.
In the case of `COc1ccc(/C=C(/C(=O)c2cccs2)N2C=CC=CC2=C(C#N)C#N)cc1`, the AC35 is 3.97 µM.
In the case of `C[C@H](O)C#Cc1ccc2c(c1)O[C@@H](CN(C)Cc1ccc(-c3ccccc3)cc1)[C@H](C)CN([C@@H](C)CO)S2(=O)=O`, the AC35 was 5.46 µM and 7.12 µM.
Consider `NC1=CC(=O)C(=O)c2cccnc21`, for which the AC35 was 11.1 µM.
As to `C[C@@H]1CN([C@H](C)CO)C(=O)c2cc(NC(=O)CCCCCC(=O)Nc3ccccc3N)ccc2O[C@@H]1CN(C)Cc1ccc(Cl)c(Cl)c1`, the AC35 was 9.95 µM.
`Cc1c(Cl)cccc1NC(=O)CCC(=O)N/N=C/c1ccc[nH]1`: the AC35 was 6.52 µM.
Regarding `COC(=O)CC1(C(=O)OC)Oc2ccc(Br)cc2C(=O)N1c1cccc(Cl)c1Cl` (centres undefined), the AC35 is 14.2 µM.
Turning to `Cc1ccc(C)c(S(=O)(=O)N2CCN(c3ncnc4sccc34)CC2)c1`, the AC35 is 5.35 µM.
In the case of `Oc1c(C(c2ccc(Cl)cc2)N2CCCC2)cc(Cl)c2cccnc12` (centres undefined), the AC35 was 1.47 µM.
`C(=Cc1cnc2ccccc2n1)c1ccc2c(c1)OCO2`: the AC35 was 8.73 µM.
